Experimental data from PMC3987113 (Toxicology and applied pharmacology, 2009).
“Also recorded” adds a separate entry of the source.

Tests used:
[1] = 300 μg/kg PCB126; ref Kopec et al. 2008; cited from earlier work
[2] = liver, PCB126; ref Kopec et al. 2008; cited from earlier work
[3] = test system: liver of immature, ovariectomized C57BL/6 mice; settings: ref Boverhof et al. 2005; Kopec et al. 2008; cited from earlier work
[4] = test system: hepatic gene expression; test: Hepatic gene expression, Agilent 4 x 44K microarrays; format: in vivo, C57BL/6 mice; settings: hepatic mRNA, 30 μg/kg TCDD; maximum fold change, |fold change|≥1.5, P1(t)≥0.90
[5] = test system: hepatic gene expression; test: QRT-PCR verification of hepatic gene expression; format: in vivo, C57BL/6 mice
[6] = test system: hepatic gene expression; settings: hepatic mRNA, cDNA microarray, 30 μg/kg TCDD; maximum fold change, |fold change|≥1.5, P1(t)≥0.90; ref Boverhof et al. 2005; cited from earlier work
[7] = Body and liver weights, time course study; format: in vivo, C57BL/6 mice; settings: 300 mg/kg PCB153 or 30 μg/kg TCDD, mean ± SD, n=5; for Body weight gain: terminal body weight divided by body weight prior to dosing
[8] = Hepatic tissue level quantification by HRGC/HRMS; format: in vivo, C57BL/6 mice; settings: liver, 168 h vs 24 h; single gavage 300 mg/kg PCB153 or 30 μg/kg TCDD
[9] = test system: liver of immature, ovariectomized C57BL/6 mice; test: Liver histopathology; format: in vivo; settings: 300 mg/kg PCB153 or 30 μg/kg TCDD

## Clc1ccc(-c2cc(Cl)c(Cl)c(Cl)c2)cc1Cl [PCB126, 3,3′,4,4′,5-pentachlorobiphenyl]
[1]
  Effect on relative liver weight (RLW): also increased RLW at later time points
[2]
  Hepatic level over time: continued to increase throughout the study, reaching the highest concentration at 7 days
[3]
  Hepatocyte cell size and number: not affected

## Clc1cc2c(cc1Cl)Oc1cc(Cl)c(Cl)cc1O2 [TCDD, 2,3,7,8-tetrachlorodibenzo-p-dioxin, reference compound]
[4]
  TCDD fold change, Abcc3: 1.7 fold
  TCDD fold change, Acsl3: −2.3 fold
  TCDD fold change, Agpat4: no change
  TCDD fold change, Akr1b7: no change
  TCDD fold change, Akr1c20: −1.7 fold
  TCDD fold change, Aox1: 2.2 fold
  TCDD fold change, Cdca2: no change
  TCDD fold change, Cds2: no change
  TCDD fold change, Ces2: 2.5 fold
  TCDD fold change, Cyp2b9: no change
  TCDD fold change, Cyp2b10: 2.3 fold
  TCDD fold change, Cyp2b23: no change
  TCDD fold change, Cyp2c54: no change
  TCDD fold change, Cyp2c55: 1.8 fold
  TCDD fold change, Cyp3a25: no change
  TCDD fold change, Dhfr: no change
  TCDD fold change, Elovl6: −4.3 fold
  TCDD fold change, Fasn: −4.3 fold
  TCDD fold change, Fmo5: no change
  TCDD fold change, Gadd45a: −3.6 fold
  TCDD fold change, Gadd45b: 3.2 fold
  TCDD fold change, Gpx2: no change
  TCDD fold change, Gsta2: 5.9 fold
  TCDD fold change, Gstm4: 2.4 fold
  TCDD fold change, Gstt3: 1.5 fold
  TCDD fold change, Hmgcr: −2.6 fold
  TCDD fold change, Hsd17b2: 2.2 fold
  TCDD fold change, Insig2: −1.7 fold
  TCDD fold change, Mad1l1: no change
  TCDD fold change, Myc: 3.0 fold
  TCDD fold change, Nol3: no change
  TCDD fold change, Pla2g12a: 3.1 fold
  TCDD fold change, Slc1a4: no change
  TCDD fold change, Slc23a1: −1.7 fold
  TCDD fold change, Smpd3: −2.6 fold
  TCDD fold change, Srebf1: −2.3 fold
  TCDD fold change, Srebf2: −1.7 fold
  TCDD fold change, Ugdh: 2.7 fold
  TCDD fold change, Zwint: no change
[5]; 30 μg/kg TCDD, Table 3 and Fig. 5C
  Regulation of PCB153-responsive (CAR/PXR) genes by TCDD: reciprocally modest; also recorded: minimal differential expression
[5]; hepatic mRNA, time course, 30 μg/kg TCDD (Fig. 6A) or 300 mg/kg PCB153 (Fig. 6B)
  Cyp1a2 induction: ~ 30 fold
[5]; hepatic mRNA, time course, 300 mg/kg PCB153 or 30 μg/kg TCDD (Fig. 6A-B)
  Elovl5 fold change: 2.2 fold
[6]
  TCDD time course Boverhof et al., Abcc3 fold change: 1.5 fold
  TCDD time course Boverhof et al., Agpat4 fold change: no change
  TCDD time course Boverhof et al., Akr1b7 fold change: no change
  TCDD time course Boverhof et al., Cds2 fold change: no change
  TCDD time course Boverhof et al., Ces2 fold change: 1.6 fold
  TCDD time course Boverhof et al., Cyp2b10 fold change: no change
  TCDD time course Boverhof et al., Dhfr fold change: −1.5 fold
  TCDD time course Boverhof et al., Elovl6 fold change: −1.8 fold
  TCDD time course Boverhof et al., Fasn fold change: −1.9 fold
  TCDD time course Boverhof et al., Fmo5 fold change: no change
  TCDD time course Boverhof et al., Gadd45b fold change: 4.6 fold
  TCDD time course Boverhof et al., Gpx2 fold change: no change
  TCDD time course Boverhof et al., Gsta2 fold change: 7.2 fold
  TCDD time course Boverhof et al., Gstt3 fold change: no change
  TCDD time course Boverhof et al., Insig2 fold change: no change
  TCDD time course Boverhof et al., Myc fold change: 3.7 fold
  TCDD time course Boverhof et al., Nol3 fold change: no change
  TCDD time course Boverhof et al., Slc1a4 fold change: no change
  TCDD time course Boverhof et al., Srebf1 fold change: −2.1 fold
  TCDD time course Boverhof et al., Srebf2 fold change: 1.5 fold
  TCDD time course Boverhof et al., Ugdh fold change: 3.1 fold
[7]; 4 h
  Liver weight: 0.733 ± 0.044 g
  Relative liver weight: 0.054 ± 0.003
  Body weight gain: 1.0 ± 0.0
[7]; 4 h after single gavage
  Terminal body weight: 13.6 ± 0.8 g
[7]; 12 h
  Liver weight: 0.724 ± 0.025 g
  Relative liver weight: 0.056 ± 0.001
  Body weight gain: 1.1 ± 0.0
[7]; 12 h after single gavage
  Terminal body weight: 12.8 ± 0.7 g
[7]; 24 h
  Liver weight: 0.973 ± 0.088 g
  Relative liver weight: 0.068 ± 0.003
  Body weight gain: 1.1 ± 0.0
[7]; 24 h after single gavage
  Terminal body weight: 14.2 ± 0.9 g
[7]; 72 h
  Liver weight: 1.068 ± 0.060 g
  Relative liver weight: 0.071 ± 0.003
  Body weight gain: 1.2 ± 0.1
[7]; 72 h after single gavage
  Terminal body weight: 15.1 ± 0.7 g
[7]; 168 h
  Liver weight: 1.263 ± 0.080 g
  Relative liver weight: 0.072 ± 0.003
  Body weight gain: 1.3 ± 0.0
[7]; 168 h after single gavage
  Terminal body weight: 17.5 ± 0.4 g
[8]
  Decrease of hepatic level after 7 days: ~ 1.4 fold
[3]
  Hepatocyte cell size and number: not affected
[9]
  Hepatic lipid accumulation, Oil Red O staining: significant lipid accumulation
  Necrosis and immune (mixed) cell infiltration in liver: more dramatic vacuolization, and necrosis, as well as mixed cell infiltration
[9]; time course
  Hepatic inflammation: moderate multifocal inflammation; also recorded: instances of multifocal inflammation
[9]; Fig. 2 at 168 h
  Hepatocellular vacuolization, time course study: more severe; also recorded: slight to moderate vacuolization
